Columns and labels:
FLT3-ITD = target: T1, FLT3-ITD (Homo sapiens, UniProt P36888); test: FLT3-ITD biochemical kinase assay (AlphaScreen)
T1 construct: FLT3-ITD; Invitrogen #PV6190
T1 sequence (P36888 1-993): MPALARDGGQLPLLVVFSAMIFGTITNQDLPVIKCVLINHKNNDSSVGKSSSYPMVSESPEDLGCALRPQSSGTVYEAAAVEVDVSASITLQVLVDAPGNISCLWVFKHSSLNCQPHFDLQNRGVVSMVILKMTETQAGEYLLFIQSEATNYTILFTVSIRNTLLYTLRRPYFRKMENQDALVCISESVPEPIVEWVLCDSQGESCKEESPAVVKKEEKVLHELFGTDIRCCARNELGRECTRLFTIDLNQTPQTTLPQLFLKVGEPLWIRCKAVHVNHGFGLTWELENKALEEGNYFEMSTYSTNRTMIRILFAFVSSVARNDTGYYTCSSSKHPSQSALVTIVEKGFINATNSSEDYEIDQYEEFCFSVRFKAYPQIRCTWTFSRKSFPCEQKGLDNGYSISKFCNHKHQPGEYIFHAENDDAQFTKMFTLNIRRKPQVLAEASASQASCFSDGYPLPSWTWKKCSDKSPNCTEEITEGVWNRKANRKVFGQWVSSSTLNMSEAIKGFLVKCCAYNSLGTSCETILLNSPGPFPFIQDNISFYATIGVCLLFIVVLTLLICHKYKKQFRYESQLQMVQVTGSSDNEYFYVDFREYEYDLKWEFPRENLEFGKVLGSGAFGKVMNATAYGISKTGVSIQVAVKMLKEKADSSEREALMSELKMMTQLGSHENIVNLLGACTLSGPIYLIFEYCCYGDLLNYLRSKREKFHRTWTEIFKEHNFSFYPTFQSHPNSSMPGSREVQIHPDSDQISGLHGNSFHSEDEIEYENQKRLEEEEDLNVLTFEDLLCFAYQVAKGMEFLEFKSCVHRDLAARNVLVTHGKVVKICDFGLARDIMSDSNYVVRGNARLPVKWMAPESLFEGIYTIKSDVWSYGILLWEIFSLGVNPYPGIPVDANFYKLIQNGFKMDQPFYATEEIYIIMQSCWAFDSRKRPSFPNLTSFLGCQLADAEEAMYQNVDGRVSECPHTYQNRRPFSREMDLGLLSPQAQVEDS
How it was run: (§1)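 Recombinant FLT3 mutant kinases phosphorylate biotin-poly(Glu4-Tyr) peptide (30 nM) at 10 μM ATP for D835Y or 100 μM for ITD. Phosphorylation detected by AlphaScreen: streptavidin donor beads (20 min) then anti-phosphotyrosine PY20 acceptor beads (60 min, RT), signal at 580 nm; inhibition lowers signal.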

FLT3-D835Y = target: T2, FLT3-D835Y (Homo sapiens, UniProt P36888, D835Y); test: FLT3-D835Y biochemical kinase assay (AlphaScreen)
T2 construct: purchased Invitrogen PV3967
T2 sequence (P36888 27-993 D835Y): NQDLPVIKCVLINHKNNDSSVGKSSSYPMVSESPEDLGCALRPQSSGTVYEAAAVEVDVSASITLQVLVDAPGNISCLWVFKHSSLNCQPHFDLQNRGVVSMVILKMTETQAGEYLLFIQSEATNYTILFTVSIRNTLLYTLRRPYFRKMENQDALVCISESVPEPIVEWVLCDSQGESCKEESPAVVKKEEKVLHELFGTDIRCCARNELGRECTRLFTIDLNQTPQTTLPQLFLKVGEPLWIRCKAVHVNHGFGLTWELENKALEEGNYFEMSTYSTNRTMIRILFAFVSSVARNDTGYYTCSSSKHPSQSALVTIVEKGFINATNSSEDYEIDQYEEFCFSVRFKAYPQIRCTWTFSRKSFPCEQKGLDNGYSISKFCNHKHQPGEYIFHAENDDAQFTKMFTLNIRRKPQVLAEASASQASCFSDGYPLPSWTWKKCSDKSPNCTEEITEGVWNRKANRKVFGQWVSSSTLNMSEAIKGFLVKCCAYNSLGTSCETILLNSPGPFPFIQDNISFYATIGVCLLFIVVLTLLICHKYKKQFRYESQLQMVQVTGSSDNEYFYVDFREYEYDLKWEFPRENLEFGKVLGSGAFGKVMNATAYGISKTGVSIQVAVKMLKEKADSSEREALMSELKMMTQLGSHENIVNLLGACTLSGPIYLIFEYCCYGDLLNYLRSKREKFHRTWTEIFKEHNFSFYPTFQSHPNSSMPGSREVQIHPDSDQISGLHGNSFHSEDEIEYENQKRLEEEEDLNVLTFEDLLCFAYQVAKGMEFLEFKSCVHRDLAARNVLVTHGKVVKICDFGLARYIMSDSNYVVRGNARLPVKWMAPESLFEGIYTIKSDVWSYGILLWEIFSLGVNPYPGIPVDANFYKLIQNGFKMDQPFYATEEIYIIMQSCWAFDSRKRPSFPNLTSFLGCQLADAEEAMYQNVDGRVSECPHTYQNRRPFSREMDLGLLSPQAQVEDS
How it was run: as §1

Compound | IC50 (FLT3-ITD) | IC50 (FLT3-D835Y)
COc1cc(C(=O)Nc2cnc3[nH]cc(-c4ccc5ncn(C6CCCNC6)c5c4)c3c2)ccn1 (stereo not drawn) [P-247, 2-methoxy-N-[3-[3-(3-piperidyl)benzimidazol-5-yl]-1H-pyrrolo[2,3-b]pyridin-5-yl]pyridine-4-carboxamide] | 0.0001 to 1 µM | 0.0001 to 1 µM
CC(C)(C)n1cnc2ccc(-c3c[nH]c4ncc(-c5cccc(S(=O)(=O)N6CCCC6)c5)cc34)cc21 [P-220, 1-tert-butyl-6-[5-(3-pyrrolidin-1-ylsulfonylphenyl)-1H-pyrrolo[2,3-b]pyridin-3-yl]benzimidazole] | 0.0001 to 1 µM | 0.0001 to 1 µM
CC(C)n1cnc2ccc(-c3c[nH]c4ncc(-c5cnn(C(F)F)c5)cc34)cc21 [P-267, 5-[1-(difluoromethyl)pyrazol-4-yl]-3-(3-isopropylbenzimidazol-5-yl)-1H-pyrrolo[2,3-b]pyridine] | 0.0001 to 1 µM | 0.0001 to 1 µM
COc1ncc(-c2cnc3[nH]cc(-c4ccc5ncn(C(C)(C)C)c5c4)c3c2)cn1 [P-265, 1-(tert-butyl)-6-(5-(2-methoxypyrimidin-5-yl)-1H-pyrrolo[2,3-b]pyridin-3-yl)-1H-benzo[d]imidazole] | 0.0001 to 1 µM | 0.0001 to 1 µM
N#Cc1cccc(-c2cnc3[nH]cc(-c4ccc5ncn(-c6ccc(F)c(Cl)c6)c5c4)c3c2)c1 [P-210, 3-[3-[3-(3-chloro-4-fluoro-phenyl)benzimidazol-5-yl]-1H-pyrrolo[2,3-b]pyridin-5-yl]benzonitrile] | 0.0001 to 1 µM | 0.0001 to 1 µM
CC(C)(C)n1cnc2ccc(-c3c[nH]c4ncc(-c5cccc(NS(C)(=O)=O)c5)nc34)cc21 [P-097, N-[3-[7-(3-tert-butylbenzimidazol-5-yl)-5H-pyrrolo[2,3-b]pyrazin-2-yl]phenyl]methanesulfonamide] | 0.0001 to 1 µM | 0.0001 to 1 µM
COc1cc(-c2cnc3[nH]cc(-c4ccc5ncn(C6CCCNC6)c5c4)c3n2)cc(OC)n1 (stereo not drawn) [P-195, 2-(2,6-dimethoxy-4-pyridyl)-7-[3-(3-piperidyl)benzimidazol-5-yl]-5H-pyrrolo[2,3-b]pyrazine] | 0.0001 to 1 µM | 0.0001 to 1 µM
CC(C)(C)n1cnc2ccc(-c3c[nH]c4ncc(C#Cc5cccc(C#N)c5)cc34)cc21 [P-242, 3-[2-[3-(3-tert-butylbenzimidazol-5-yl)-1H-pyrrolo[2,3-b]pyridin-5-yl]ethynyl]benzonitrile] | 0.0001 to 1 µM | 0.0001 to 1 µM
CC(C)S(=O)(=O)Nc1cccc(-c2cnc3[nH]cc(-c4ccc5ncn(C6CCCNC6)c5c4)c3c2)c1 (stereo not drawn) [P-215, N-[3-[3-[3-(3-piperidyl)benzimidazol-5-yl]-1H-pyrrolo[2,3-b]pyridin-5-yl]phenyl]propane-2-sulfonamide] | 0.0001 to 1 µM | 0.0001 to 1 µM

Source: US10160755B2 (Plexxikon Inc., priority 2015, dated 2018)
